Measurements as given in publication PMC10848157, “Assessing NH300094, a novel dopamine and serotonin receptor modulator with cognitive enhancement property for treating schizophrenia” (Frontiers in Pharmacology, 2024).

How the values were obtained:
D3 receptor = D3 receptor (Homo sapiens, UniProt P35462); assay: D3 receptor functional assay (Nano-Glo luciferase assay system); assay type: cell-based; conditions: antagonist activity, CHO-K1/D3 cells, read-out: D3R, IC50
H1 receptor = target: T1, H1 receptor (Homo sapiens, UniProt P35367); assay: H1 receptor functional assay (calcium flow, FLIPR); assay type: cell-based; conditions: HEK293/H1 cells, read-out: H1R, IC50
T1 construct: host or cells: HEK293/H1
T1 sequence (P35367 whole entry): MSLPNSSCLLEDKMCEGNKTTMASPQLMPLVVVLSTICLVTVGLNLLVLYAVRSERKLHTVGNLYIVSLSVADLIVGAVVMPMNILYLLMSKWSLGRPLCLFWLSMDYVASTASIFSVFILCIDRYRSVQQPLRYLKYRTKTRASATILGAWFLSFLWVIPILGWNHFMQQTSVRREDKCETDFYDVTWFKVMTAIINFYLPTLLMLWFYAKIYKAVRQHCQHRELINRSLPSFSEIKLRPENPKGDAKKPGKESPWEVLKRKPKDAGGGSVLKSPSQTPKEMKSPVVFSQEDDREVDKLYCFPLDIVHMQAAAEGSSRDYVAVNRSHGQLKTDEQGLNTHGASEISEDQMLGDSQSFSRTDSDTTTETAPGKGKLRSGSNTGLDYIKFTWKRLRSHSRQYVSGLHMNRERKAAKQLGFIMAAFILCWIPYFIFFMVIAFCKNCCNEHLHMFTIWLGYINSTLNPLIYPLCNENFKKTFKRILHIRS

Alpha1A receptor = target: T2, Alpha1A receptor (Homo sapiens, UniProt P35348); assay: Alpha1A receptor functional assay (calcium flow, FLIPR); assay type: cell-based; conditions: HEK293/Alpha1A cells, read-out: Alpha1AR, IC50
T2 construct: expressed in transfected cells; host or cells: HEK293/Alpha1A (constructed by Shanghai shujing Biopharma)
T2 sequence (P35348 1-466): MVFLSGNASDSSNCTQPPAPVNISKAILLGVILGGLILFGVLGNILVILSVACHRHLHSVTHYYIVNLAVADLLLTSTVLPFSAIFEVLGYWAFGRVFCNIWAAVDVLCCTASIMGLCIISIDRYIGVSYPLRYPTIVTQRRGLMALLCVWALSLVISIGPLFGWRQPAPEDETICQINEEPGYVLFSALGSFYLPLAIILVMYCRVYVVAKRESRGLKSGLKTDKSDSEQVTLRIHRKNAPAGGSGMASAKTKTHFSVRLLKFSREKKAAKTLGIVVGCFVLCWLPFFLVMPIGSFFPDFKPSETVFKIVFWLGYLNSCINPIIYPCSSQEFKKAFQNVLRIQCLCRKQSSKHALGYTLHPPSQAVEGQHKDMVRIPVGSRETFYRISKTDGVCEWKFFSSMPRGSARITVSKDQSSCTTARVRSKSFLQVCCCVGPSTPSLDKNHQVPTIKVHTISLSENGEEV

5-HT2C receptor = target: T3, 5-HT2C receptor (Homo sapiens, UniProt P28335); assay: 5-HT2C receptor functional assay (calcium flow, FLIPR); assay type: cell-based; conditions: HEK293/5-HT2C cells, read-out: 5HT2cR, IC50
T3 sequence (P28335 33-458): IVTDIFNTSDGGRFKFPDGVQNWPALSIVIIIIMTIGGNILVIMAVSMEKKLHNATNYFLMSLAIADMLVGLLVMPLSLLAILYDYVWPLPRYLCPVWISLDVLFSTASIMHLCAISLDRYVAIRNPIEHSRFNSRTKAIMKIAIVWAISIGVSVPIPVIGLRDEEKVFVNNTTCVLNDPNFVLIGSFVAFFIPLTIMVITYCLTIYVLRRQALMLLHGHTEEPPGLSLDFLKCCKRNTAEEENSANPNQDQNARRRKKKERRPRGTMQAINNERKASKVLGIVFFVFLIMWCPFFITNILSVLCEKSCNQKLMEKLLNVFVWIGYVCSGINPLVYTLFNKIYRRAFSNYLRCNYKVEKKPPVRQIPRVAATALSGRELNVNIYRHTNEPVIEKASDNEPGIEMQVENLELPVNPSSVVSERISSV

male ICR mice [1] = assay: Novel object recognition in scopolamine hydrobromide-treated mice; assay type: in vivo; conditions: NOR; NH300094 0.01–0.16 mg/kg p.o.; risperidone 0.04, 0.08, 0.16 mg/kg p.o.; rivastigmine 0.3 and 1 mg/kg i.p.
Experimental: The procedure was modified according to Bevins and Besheer ([Bevins and Besheer, 2006]). […] The tests were conducted in a 50 cm × 35 cm × 20 cm chamber and the mice behavior was recording using a Hikvision video recording system (H.265, Hikvision Digtial Technology Co., Ltd.). All mice were allowed to freely explore the chamber environment for 10 min, and there were no objects placed in the chamber during acclimatization period. […] Rivastigmine hydrogen tartrate group (0.1, 0.3 and 1 mg/kg, i.p.) were dosed simultaneously with scopolamine hydrobromide (3 mg/kg, i.p.). Training was conducted 30 min post scopolamine hydrobromide administration by placing a single mouse into a chamber for 10 min with two exactly same objects positioned in the center of chamber. (The distance between the two objects was more than 20 cm). […]
The experimental video was analyzed to record the time of mice exploring the new and old objects, respectively, and the differentiation index (DI) was calculated as follows: DI = new object exploration time/(new object exploration time + old object exploration time), which was used as the main evaluation index of discrimination ability. […] If the total exploration time of the new and old objects was less than 20 s, the total 10 min of video would be analyzed. […] The movement of circling without sniffing or sitting on the object was not recorded as exploration behavior.

male ICR mice [2] = assay: Forced swimming test in mice; assay type: in vivo; conditions: single oral dose; NH300094 0.03 mg/kg; risperidone 0.01, 0.03 and 0.1 mg/kg
Experimental: Each mouse was required to swim in an open cylindrical container (height of 25 cm, diameter of 10 cm) after intragastric administration of compounds 1 h. The container contained 1.2 L of water with temperature maintained at 24°C ± 1°C. The test used a computerized analysis and tracking system (Clever Sys Inc., Leesburg, VA) to recorded the duration of immobility (last 4 min of a total time of 6 min) about the testing mice.

[3] = Pharmacokinetics assay in rats; assay type: in vivo, male SD rats
Experimental: Six male SD rats (7 weeks of age) were randomly divided into two groups with three rats per group. Animals were fasted overnight and had free access to water before dosing. For the intravenous group, male SD rats were administered NH300094 by single intravenous bolus administration at a dose of 2 mg/kg. For the oral group, male SD rats were dosed orally with NH300094 at a dose of 10 mg/kg. Serial blood samples were collected at different time points (Pre-dose, 0.033, 0.083, 0.25, 0.5, 1, 2, 4, 6, 8, 12 and 24 h for the intravenous group; Pre-dose, 0.167, 0.333, 0.5, 1, 2, 4, 6, 8, 10, 12 and 24 h for the oral group) via jugular vein puncture from each study animal. All blood samples were transferred into commercial tube containing K2-EDTA. Plasma samples were prepared by centrifuging the blood samples at approximately 4°C, 3,200×g for 15 min, and then stored at −70°C until analysis (Supplementary Materials). The pharmacokinetic parameters were calculated using WinNonlin software (Version 6.3) according to non-compartmental model.

[4] = rat, plasma, intravenous, 2 mg/kg, male SD rats
[5] = rat, plasma, oral, 10 mg/kg, male SD rats

Sequence of D3 receptor (P35462 whole entry): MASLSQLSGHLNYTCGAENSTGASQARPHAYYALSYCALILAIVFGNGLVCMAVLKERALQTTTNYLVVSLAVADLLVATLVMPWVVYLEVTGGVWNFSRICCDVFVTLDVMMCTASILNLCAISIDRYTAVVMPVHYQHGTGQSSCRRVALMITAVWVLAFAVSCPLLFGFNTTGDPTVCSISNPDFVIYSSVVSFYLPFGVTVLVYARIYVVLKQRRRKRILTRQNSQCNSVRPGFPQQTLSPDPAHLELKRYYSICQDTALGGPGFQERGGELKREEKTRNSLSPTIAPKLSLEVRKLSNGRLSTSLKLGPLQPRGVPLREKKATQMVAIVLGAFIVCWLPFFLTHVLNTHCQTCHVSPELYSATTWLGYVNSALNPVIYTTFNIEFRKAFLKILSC

O=C1CCc2cc(OCCCN3CCC(c4noc5cc(F)ccc45)CC3)cc3c2N1CC3 [NH300094, 8-(3-(4-(6-fluorobenzo [d]isoxazol-3-yl)piperidin-1-yl)propoxy)-1,2,5,6-tetrahydro-4H-pyrrolo [3,2,1-ij] quinolin-4-one]
IC50 (D3 receptor): 31.5 ± 23.1 nM | IC50 (H1 receptor): 126 nM | IC50 (Alpha1A receptor): 28.5 nM | IC50 (5-HT2C receptor): 3020 nM | effect on differentiation index (DI) of scopolamine hydrobromide-treated mice (male ICR mice [1]): increased DI index | effect on immobility time in the FST (male ICR mice [2]): decreased immobility time | bioavailability ([3]; male, SD, rat, plasma, oral, 10 mg/kg, oral 10 mg/kg vs intravenous 2 mg/kg, male SD rats): ~87.6% | area under the concentration time-curves for time zero to infinity ([3]; oral administration, rats (rounded value in text)): 14800 ng/mL*h | AUC(0-inf) [3, 4]: 3380 ng·h/mL | AUC(0-t) [3, 4]: 3370 ng·h/mL | C0 [3, 4]: 10800 ng/mL | clearance [3, 4]: 9.91 mL/min/kg | half-life [3, 4]: 1.73 h | Vd ([3]; rat, plasma, intravenous, 2 mg/kg, male SD rats, read-out: Vdss): 0.379 L/kg | AUC(0-inf) [3, 5]: 14800 ng·h/mL | AUC(0-t) [3, 5]: 14800 ng·h/mL | Cmax [3, 5]: 8710 ng/mL | Tmax [3, 5]: 0.389 h | half-life [3, 5]: 1.28 h
